Results: patent publication US12622859B2, “Organic compounds” (GIVAUDAN SA, priority 2017, dated 2026)

How the values were obtained:
Solubility in water = format: physicochemical
From the text: (§1) Consequently, the extract is preferably obtained by extracting the compounds from plant material using an alcohol, and more particularly ethanol. It is particularly preferred if the alcohol is water-free.

Stability in water = format: physicochemical
From the text: as §1

Row | solubility in water (Solubility in water) | stability in water (Stability in water) | Compound
1 | water-soluble | unstable in water | C[C@@H]1O[C@@H](O[C@@H]2[C@@H](O)[C@H](OCCc3ccc(O)c(O)c3)O[C@H](CO)[C@H]2OC(=O)/C=C/c2ccc(O)c(O)c2)[C@H](O)[C@H](O)[C@H]1O [acteoside]
2 | water-soluble | unstable in water | C[C@@H]1O[C@@H](O[C@@H]2[C@H]3O[C@@H](c4ccc(O)c(O)c4)CO[C@@H]3O[C@H](CO)[C@H]2OC(=O)/C=C/c2ccc(O)c(O)c2)[C@H](O)[C@H](O)[C@H]1O [crenatoside]
